Like-named read-outs stand apart in the source and are kept apart here.
Key:
[1] = test system: A549 (lung adenocarcinoma); assay: SRB (sulforhodamine B) viability assay, A549; format: cell-based, human; conditions: for IC50 / IC50 ± SD, A549 (Lung), Hypoxia: SRB assay
Experimental: (§1) The cytotoxicity of the complexes C1–C5 was estimated by examining cell viability using the sulforhodamine B assay. […] However, due to the very poor solubility of the most polar complex C5 in acetone, its initial solution had to be prepared in polar N,N-dimethylacetamide (DMA) (see Section 3.7). Cisplatin was used as the reference drug. The results are presented as IC50 (50% inhibitory concentration), i.e., concentrations that reduce cell survival by 50%. The test was conducted on three cancer cell lines and one normal healthy cell line, namely, breast adenocarcinoma (MCF-7), ovarian adenocarcinoma (ES-2), lung adenocarcinoma (A549), and murine embryonic fibroblast (BALB/3T3).
(§2) Three solid tumor cell lines were used in this study: MCF-7 (breast adenocarcinoma), ES-2 (ovarian adenocarcinoma), and A549 (lung adenocarcinoma). The BALB/3T3 (mouse embryonic fibroblast) cell line was used as a comparative nonpathological tissue. All cell lines were purchased from the American Type Culture Collection (ATCC, Rockville, MD, USA). The preparation of cell cultures for cytotoxicity experiments is described in detail in the following article.
(§3) The initial solutions for subsequent dilutions in biological medium were prepared in a similar manner as described previously. […] The complex C5 was dissolved in the dimethylacetamide (DMA). All the initial solutions were prepared ex tempore and then were added to the culture medium 1:9 (v/v) to obtain a stock solution of 1 mg/mL.
(§4) The test was prepared and performed in the same manner as detailed in the following cited works.

[2] = Solubility in solvents (qualitative); format: physicochemical
[3] = test system: BALB/3T3 (mouse embryonic fibroblast); assay: SRB (sulforhodamine B) viability assay, normal cells BALB/3T3; format: cell-based; conditions: normoxia, read-out: IC50 ± SD, Normal Cells BALB/3T3, Normoxia
Experimental: as §1, §2, §3, §4

[4] = test system: ES-2 (ovarian adenocarcinoma); assay: SRB (sulforhodamine B) viability assay, ES-2; format: cell-based, human
Experimental: as §1, §2, §3, §4

[5] = TLC Rf as a measure of relative lipophilicity; format: physicochemical; conditions: silica gel TLC Al foils
[6] = TLC Rf as a measure of relative lipophilicity; format: physicochemical; conditions: silica gel TLC Al foils; remark: listed apart in the source
Experimental: Measurement of the melting points (m.p.) of the obtained compounds was performed with the Büchi M560 melting point device (BÜCHI Labortechnik AG, CH-9230 Flawil/SG, Flawil, Switzerland) and was uncorrected. The ESI-MS (electrospray ionization mass spectroscopy) spectra were recorded with the compactTM Bruker Daltonics Electrospray Ionization Quadrupole Time-of-Flight (ESI-Q-TOF) spectrometer (Bruker Daltonics GmbH, Bremen, Germany). The ESI-MS measurements for new compounds were performed in both positive- and negative-ion mode in LC-MS-grade using LC-MS grade methanol as a solvent. ESI-MS spectral analysis and the simulation of the theoretical monoisotopic mass of detected ions were performed using Bruker Compass Data Analysis 4.2 software (Bruker Daltonics GmbH, Bremen, Germany). All ^1H and ^13C-NMR spectra were recorded on the following instruments: Bruker NMR AVANCE III™ 600 MHz spectrometer with Ascend™ technology magnet with a quadruple resonance NMR ‘inverse’ cryoprobe (Bruker Corporation, Billerica, MA, USA) and/or Bruker ARX-300 (300 MHz) spectrometer (Bruker Analytische Messtechnik GmbH, Rheinstetten, Germany). The NMR measurements of samples of the compounds were carried out at room temperature (20–25 °C) using 5 mm tubes in deuterated acetone-d6. NMR chemical shifts were referenced to the solvent signal, i.e., for ^1H-NMR: δ (quintet of residual acetone-d6) = 2.05 ppm and for ^13C-NMR: δ (septet of acetone-d6) = 29.84 ppm. The Nicolet iS50 FT-IR spectrophotometer (Thermo Fisher Scientific Inc., Waltham, MA, USA) was used to record the Attenuated Total Reflectance IR (ATR-FT-IR) spectra (at MIR range 4000–450 cm^−1). Recording of spectra was performed on the diamond crystal surface (32 scans, resolution: 1 cm^−1, measurement temperature: 20–25 °C) with ATR intensity correction in the Laboratory of Elemental Analysis and Structural Research, Faculty of Pharmacy, Wroclaw Medical University. A Fourier transform, Bruker VERTEX 70V vacuum spectrometer equipped with an air-cooled DTGS detector was used to obtain the Far-IR (far-infrared) spectra (below 500 cm^−1) of the Pt(II) complexes. The spectra measurements were conducted with the ATR accessory, such as a diamond ATR crystal, in the resolution of 1 cm^−1 with 64 scans in the Laboratory of Vibrational Spectroscopy of the Faculty of Chemistry at Wrocław University of Science and Technology. No ATR intensity correction was applied to Far-IR spectra. Omnic 9.3.30 and Omnic Specta 2.0 software (Thermo Fisher Scientific Inc.) was used to process and analyze spectra. A double beam U-2800 Spectrophotometer (Hitachi—Science & Technology, Tokyo, Japan) was used to record UV spectra of Pt-complexes (C1 and C2) and reaction rate measurements of the GSH complexes. Dioxane solutions of complexes were used in the following concentrations: c = 2 × 10^−5 M and 3 × 10^−5 M, respectively, for C1 and C2. Measurement of UV spectra was conducted in quartz cuvettes (path length = 10.0 mm) in the range 190–400 nm (sampling interval 1 nm, scan speed 200 nm/min). All UV experiments were performed in the Laboratory of Elemental Analysis and Structural Research, Faculty of Pharmacy, Wroclaw Medical University. Baselines were corrected with pure dioxane as the reference solvent. Thin-layer chromatography (TLC) was used to monitor the progress of the reaction course and determine the purity of the synthesized compounds. Silica gel on TLC Al foils with fluorescent indicator 254 nm (Sigma-Aldrich, Merck Group, Darmstadt, Germany) was used as the stationary phase and chloroform–acetone mixtures (volume ratios 9:1, 7:3, and 1:1) as the eluent. Detection of Pt(II) compounds in the chromatograms was performed using a 0.5% acetone solution of rubeanic acid (dithiooxamide), and organic impurities were detected by observing the plates under UV light at 250 nm. […]

[7] = test system: MCF-7 (breast adenocarcinoma); assay: SRB (sulforhodamine B) viability assay, MCF-7; format: cell-based, human; conditions: for IC50: SRB assay
Experimental: as §1, §2, §3, §4

[8] = normoxia, read-out: IC50 ± SD, A549 (Lung), Normoxia
[9] = hypoxia, read-out: IC50 ± SD, ES-2 (Ovarian), Hypoxia
[10] = normoxia, read-out: IC50 ± SD, ES-2 (Ovarian), Normoxia
[11] = hypoxia, read-out: IC50 ± SD, MCF-7 (Breast), Hypoxia
[12] = normoxia, read-out: IC50 ± SD, MCF-7 (Breast), Normoxia

| Compound | IC50 ([1]; hypoxia, read-out: IC50 ± SD, A549 (Lung), Hypoxia) [µM] | IC50 [1, 8] [µM] | selectivity index (SI), healthy cells vs A549 ([1]; ratio of cytotoxicity towards healthy BALB/3T3 cells to cytotoxicity towards A549) | solubility in acetone [2] | IC50 [3] [µM] | IC50 [4, 9] [µM] | IC50 [4, 10] [µM] | Rf, Eluent: Chlorofom:Acetone Ratio 9:7 Vol. [5] | Rf, Eluent: Chlorofom:Acetone Ratio 1:1 Vol. [6] | Rf, Eluent: Chlorofom:Acetone Ratio 9:1 Vol. [6] | IC50 [7, 11] [µM] | IC50 [7, 12] [µM] | selectivity index (SI), healthy cells vs MCF-7 ([7]; ratio of cytotoxicity towards healthy BALB/3T3 cells to cytotoxicity towards MCF-7, normoxia) | IC50 ± SD, A549 (Lung), Hypoxia ([1]; hypoxia) | solubility in chloroform [2] |
| --- | --- | --- | --- | --- | --- | --- | --- | --- | --- | --- | --- | --- | --- | --- | --- |
| Cc1nscc1[N+](=O)[O-].Cc1nscc1[N+](=O)[O-].[Cl][Pt][Cl] [C2, trans-Dichlorobis(3-methyl-4-nitroisothiazole)platinum(II)] | 6.52 ± 2.28 | 6.34 ± 1.47 | 0.2 | weakly soluble | 1.14 ± 0.28 | 1.1 ± 0.34 | 2.14 ± 2.21 | 0.756 | 0.833 | 0.355 | 9.07 ± 5.07 | 6.16 ± 0.78 | ≈ 0.2 |  |  |
| COC(=O)c1snc(C)c1[N+](=O)[O-].Cc1nscc1[N+](=O)[O-].[Cl][Pt][Cl] [C3, trans-Dichloro-3-methyl-4-nitroisothiazole 3-Methyl-4-nitro-5-(methoxycarbonyl)isothiazole Platinum(II)] |  | 5.74 ± 0.65 |  | slightly soluble | 2.94 ± 3.06 | 4.02 ± 2.47 | 3.9 ± 2.68 | 0.814 | 0.845 | 0.645 | 7.13 ± 1.93 | 5.25 ± 1.01 |  | inactive | very poorly soluble |
| COC(=O)c1snc(C)c1[N+](=O)[O-].COC(=O)c1snc(C)c1[N+](=O)[O-].[Cl][Pt][Cl] [C4, trans-Dichlorobis(3-methyl-4-nitro-5-(methoxycarbonyl)isothiazole)platinum(II)] |  | 40.3 ± 19.9 |  | slightly soluble | 5.99 ± 1.28 | 5.44 ± 1.64 | 3.89 ± 1.62 | 0.849 | 0.863 | 0.828 | 7.68 ± 4.45 | 6.94 ± 2.25 |  | inactive | very poorly soluble |
| Dichlorobis(3-methyl-4-nitroisothiazole)platinum(II) [C1] |  | 31.4 ± 18.8 |  |  | 7.31 ± 0.82 | 6.37 ± 1.69 | 7.29 ± 1.42 | 0.442 | 0.726 | 0.054 | 8.45 ± 2.25 | 4.59 ± 1.57 |  | inactive |  |
